The nature of series [1]: Solubility in 40% w/w cyclodextrin solutions versus potassium phosphate buffer. The series is classed as physicochemical. To be noted: thermodynamic from solid, room temperature (20-25° C.). The procedure: Aqueous solutions of cyclodextrin at pH 6.7-7.2 were prepared by dissolving 4 parts of cyclodextrins (hydroxypropyl α-cyclodextrin (HPACD), hydroxypropyl β-cyclodextrin (HPBCD), β-cyclodextrin (BCD), hydroxypropyl γ-cyclodextrin (HPGCD), or CAPTISOL) in 6 parts of potassium phosphate buffer (50 mM KH2PO4, pH 7.0), resulting solutions of 40% w/w cyclodextrins.
Aqueous solutions of cyclodextrin at pH 6.7-7.2 were prepared by dissolving 4 parts of cyclodextrins (hydroxypropyl α-cyclodextrin (HPACD), hydroxypropyl β-cyclodextrin (HPBCD), hydroxypropyl γ-cyclodextrin (HPGCD), or CAPTISOL) in 6 parts of potassium phosphate buffer (50 mM KH2PO4, pH 7.0), resulting solutions of 40% w/w cyclodextrins.

Series [2] in a line: Chemical stability of decitabine in cyclodextrin solutions (HPLC potency). The series is classed as physicochemical. As to conditions: 2-8° C. and 25° C., percentage of total peak areas at 220 nm, FIGS. 1 and 2. The procedure:
The chemical stability of decitabine in the cyclodextrin solutions and in the phophate buffer as prepared above was determined. The initial decitabine concentration for all the solutions was 17-18 mg/mL at the beginning of the experiment at 2-8° C.; 9-10 mg/mL at the beginning of the experiment at 25° C. Decitabine potency was assayed by a HPLC method, and expressed as a percentage of total peak areas at 220 nm.

Series [3] can be described thus: UV spectroscopy of decitabine-HPBCD complex formation. The series is classed as physicochemical. To be noted: absorbance at 262 nm, room temperature, 1:1 stoichiometry assumed, least-squares fit.
The conditions of series [4]: cited from earlier work.
The mark [5] stands for this setting: 40% w/w Captisol aqueous solution, aqueous with cosolvent or surfactant or cyclodextrin, 40% Captisol (w/w, pH 6.7).
Setting [6] is: 40% w/w HPACD aqueous solution, aqueous with cosolvent or surfactant or cyclodextrin, 40% HPACD (w/w, pH 7.0).
[7] abbreviates: 40% w/w HPBCD aqueous solution, aqueous with cosolvent or surfactant or cyclodextrin, 40% HPBCD (w/w, pH 7.2).
Setting [8] is: potassium phosphate buffer, aqueous buffer, KPi (50 mM KH2PO4, pH 7.0).

The values below come from patent publication US20060128653A1, “Pharmaceutical formulation of decitabine” (priority 2004, published 2006).

SMILES strings stand for the structures. ≈ marks a conversion by molar mass, not a printed value. Like-named read-outs stand apart in the source and are kept apart here.

As usually defined, the solubility is the concentration that dissolves in the medium under given conditions. A low value points to a poorly soluble substance. Turning to `Nc1ncn([C@H]2C[C@H](O)[C@@H](CO)O2)c(=O)n1` [decitabine, 5-aza-2′-deoxycytidine], the solubility in series [1] (setting [5]) worked out at 42 mg/mL (≈ 184 mM); in series [1] (setting [6]), 18 mg/mL (≈ 78.9 mM); in series [1] (setting [7]), 44 mg/mL (≈ 193 mM); in series [1] (setting [8]), 18 mg/mL (≈ 78.9 mM). The “Stability of decitabine in aqueous solution with cyclodextrins as excipients” value in series [2] is “dramatically improve the stability”. For the same compound, the “Complex formation constant Kf for decitabine-HPBCD complex” value in series [3] came out at 23 M⁻¹. Moreover, the “Steady-state plasma concentration (estimated)” value in series [4] (6-hour infusion of 100 mg/m^2) is 0.31 to 0.39 µg/mL; in series [4] (infusion rate of 1 mg/kg/h), 0.2 to 0.5 µg/mL. For the same compound, the “Range of plasma concentrations” value in series [4] (600-mg/m^2 infusion) was 0.41 to 16 µg/mL. Moreover, the Terminal half-life in series [4] (humans, measured by bioassay) was 10 to 35 min. The “Half-life after discontinuing the infusion” value in series [4] (humans) was 12 to 20 min. In addition, the “Total urinary excretion, % of the administered dose” value in series [4] (humans) is “less than 1%”. The Volume of distribution entry in series [4] (humans) is “about 4.6 L/kg”. For the same compound, the Plasma concentration in series [4] (infusion times of 40-60 hours, infusion rate 1 mg/kg/h) was 430 to 760 ng/mL; in series [4] (patients, 100 mg/m^2 as a 3-hour infusion), “about 0.4 μg/ml”. Also, in series [4] (man, end of a 36-hour intravenous infusion), the “Penetration into the cerebrospinal fluid, % of the plasma concentration” value is 14-21%.

For the compound `Nc1ncn([C@@H]2O[C@H](CO)[C@@H](O)[C@H]2O)c(=O)n1` [5-azacytidine], the solubility was determined as 26 mg/mL (≈ 106 mM) in series [1] (setting [5]); 20 mg/mL (≈ 81.9 mM) in series [1] (setting [6]); 26 mg/mL (≈ 106 mM) in series [1] (setting [7]); 22 mg/mL (≈ 90.1 mM) in series [1] (40% w/w HPGCD aqueous solution, aqueous with cosolvent or surfactant or cyclodextrin, 40% HPGCD (w/w, pH 7.0)); 19 mg/mL (≈ 77.8 mM) in series [1] (setting [8]).
